Patent US20070128217A1 (priority 2003, published 2007)

Experiments:
[1] = system: control sera (pooled serum of ten healthy LUMC hospital workers; commercial negative donor pooled serum from the Dutch bloodbank); format: binding, human; parameters: Binding of Control serum LUMC to linear peptides / Binding of Control serum Blood-bank to linear peptides / Binding of Control serum LUMC to looped peptides / Binding of Control Serum Blood-Bank to Looped peptides / Binding of Control serum LUMC to linear peptides of the protein M of SARS-CoV Urbani / Binding of Control serum Blood-bank to linear peptides of the protein M of SARS-CoV Urbani / Binding of Control serum LUMC to looped peptides of the protein M of SARS-CoV Urbani / Binding of Control Serum Blood-Bank to Looped peptides of the protein M of SARS-CoV Urbani: unit not given here
[2] = system: recombinant human anti-SARS-CoV antibody 03-018; format: binding; parameters: Binding of antibody 03-018 to linear peptides of the N protein of SARS-CoV Urbani / Binding of antibody 03-018 to looped/cyclic peptides of the N protein of SARS-CoV Urbani: unit not given here
[3] = system: antibodies in sera from SARS patients (sera 1a, 1b, 2, 6, 37, 62, London, SARS-yellow, SARS-green); format: binding, human; parameters: Binding of serum 6 to linear peptides of protein X1 of SARS-CoV Urbani / Binding of serum 37 to linear peptides of protein X1 of SARS-CoV Urbani / Binding of serum 6 to looped/cyclic peptide (PEPSCAN-ELISA) / Binding of serum 37 to looped/cyclic peptide (PEPSCAN-ELISA) / Binding of serum 37 to looped/cyclic peptides of protein X1 of SARS-CoV Urbani / Binding of serum 6 to linear peptides of protein X2 / Binding of serum 37 to linear peptides of protein X2 / Binding of serum 37 to looped/cyclic peptides of protein X2 of SARS-CoV Urbani / Binding of serum 6 to linear peptides of protein M of SARS-CoV Urbani / Binding of serum 37 to linear peptides of protein M of SARS-CoV Urbani / Binding of serum 6 to looped/cyclic peptides of protein M of SARS-CoV Urbani / Binding of serum 37 to looped/cyclic peptides of protein M of SARS-CoV Urbani / Binding of serum 6 to linear peptides of protein X3 of SARS-CoV Urbani / Binding of serum 37 to linear peptides of protein X3 of SARS-CoV Urbani / Binding of serum 37 to looped/cyclic peptides of protein X3 of SARS-CoV Urbani / Binding of serum 6 to linear peptides of protein X4 of SARS-CoV Urbani / Binding of serum 37 to linear peptides of protein X4 of SARS-CoV Urbani / Binding of serum 37 to looped/cyclic peptides of protein X4 of SARS-CoV Urbani / Binding of serum 6 to linear peptides of protein X5 of SARS-CoV Urbani / Binding of serum 37 to linear peptides of protein X5 of SARS-CoV Urbani / Binding of serum 37 to looped/cyclic peptides of protein X5 of SARS-CoV Urbani / Binding of serum 6 to linear peptides of protein N of SARS-CoV Urbani / Binding of serum 37 to linear peptides of protein N of SARS-CoV Urbani / Binding of serum 6 to linear peptide (PEPSCAN-ELISA) / Binding of serum 1a to looped/cyclic peptides of protein N of SARS-CoV Urbani / Binding of serum 1b to looped/cyclic peptides of protein N of SARS-CoV Urbani / Binding of serum 2 to looped/cyclic peptides of protein N of SARS-CoV Urbani / Binding of serum 6 to looped/cyclic peptides of protein N of SARS-CoV Urbani / Binding of serum 37 to looped/cyclic peptides of protein N of SARS-CoV Urbani / Binding of serum 62 to looped/cyclic peptides of protein N of SARS-CoV Urbani / Binding of serum London to looped/cyclic peptides of protein N of SARS-CoV Urbani / Binding of serum SARS-green to looped/cyclic peptides of protein N of SARS-CoV Urbani: unit not given here
[4] = system: rabbit serum obtained by immunizing a rabbit with the SARS-CoV strain Frankfurt 1; format: binding; parameters: Binding of a rabbit serum to linear peptides / Binding of a rabbit serum to looped peptides / Rabbit serum linear peptides / Rabbit serum looped peptides / Binding of a rabbit serum to linear peptides of protein N of SARS-CoV Urbani (Rabbit serum linear peptides) / Binding of a rabbit serum to looped/cyclic peptides of protein N of SARS-CoV Urbani (Rabbit serum looped peptides): unit not given here

| Sequence | Binding of Control Serum Blood-Bank to Looped peptides [1] | Binding of Control serum Blood-bank to linear peptides [1] | Binding of Control serum LUMC to linear peptides [1] | Binding of Control serum LUMC to looped peptides [1] | Binding of antibody 03-018 to linear peptides of the N protein of SARS-CoV Urbani [2] | Binding of antibody 03-018 to looped/cyclic peptides of the N protein of SARS-CoV Urbani [2] | Binding of serum 1a to linear peptide (PEPSCAN-ELISA) [3] | Binding of serum 1a to looped/cyclic peptides of protein N of SARS-CoV Urbani [3] | Binding of serum 1b to linear peptide (PEPSCAN-ELISA) [3] | Binding of serum 1b to looped/cyclic peptides of protein N of SARS-CoV Urbani [3] | Binding of serum 2 to linear peptide (PEPSCAN-ELISA) [3] | Binding of serum 2 to looped/cyclic peptides of protein N of SARS-CoV Urbani [3] | Binding of serum 6 to looped/cyclic peptides of protein N of SARS-CoV Urbani [3] | Binding of serum 37 to looped/cyclic peptides of protein N of SARS-CoV Urbani [3] | Binding of serum 62 to looped/cyclic peptides of protein N of SARS-CoV Urbani [3] | Binding of serum London to looped/cyclic peptides of protein N of SARS-CoV Urbani [3] | Binding of serum SARS-green to looped/cyclic peptides of protein N of SARS-CoV Urbani [3] | Binding of serum SARS-yellow to looped/cyclic peptides of protein N of SARS-CoV Urbani [3] | Binding of a rabbit serum to linear peptides of protein N of SARS-CoV Urbani (Rabbit serum linear peptides) [4] | Binding of a rabbit serum to looped/cyclic peptides of protein N of SARS-CoV Urbani (Rabbit serum looped peptides) [4] | other results |
| --- | --- | --- | --- | --- | --- | --- | --- | --- | --- | --- | --- | --- | --- | --- | --- | --- | --- | --- | --- | --- | --- |
| LALLLLDRLNQLESK | 0.7 | 0.7 | 0.6 | 0.6 | 0.1 | 0.2 | 0.2 | 0.3 | 0.1 | 0.2 | 0.1 | 0.4 | 0.2 | 0.5 | 0.5 | 0.4 | 0.6 | 0.4 | 0.1 | 0.6 | Binding of serum 6 to linear peptide (PEPSCAN-ELISA) [3]: 0.1; Binding of serum 37 to linear peptide (PEPSCAN-ELISA) [3]: 0.5; Binding of serum 62 to linear peptide (PEPSCAN-ELISA) [3]: 0.5; Binding of serum London to linear peptide (PEPSCAN-ELISA) [3]: 0.7; Binding of serum SARS-green to linear peptide (PEPSCAN-ELISA) [3]: 0.4; Binding of serum SARS-yellow to linear peptide (PEPSCAN-ELISA) [3]: 0.5 |
| LESKVSGKGQQQQGQ | 0.8 | 0.8 | 0.7 | 0.7 | 0.1 | 0.3 | 0.3 | 0.4 | 0.1 | 0.3 | 0.2 | 0.7 | 0.5 | 0.7 | 0.6 | 1.8 | 0.4 | 0.7 | 0.1 | 0.6 | Binding of serum 6 to linear peptide (PEPSCAN-ELISA) [3]: 0.1; Binding of serum 37 to linear peptide (PEPSCAN-ELISA) [3]: 0.6; Binding of serum 62 to linear peptide (PEPSCAN-ELISA) [3]: 0.6; Binding of serum London to linear peptide (PEPSCAN-ELISA) [3]: 0.5; Binding of serum SARS-green to linear peptide (PEPSCAN-ELISA) [3]: 0.4; Binding of serum SARS-yellow to linear peptide (PEPSCAN-ELISA) [3]: 0.7 |
| LGTGPEASLPYGANK | 0.5 | 0.9 | 0.9 | 0.6 | 0.1 | 0.2 | – | 0.3 | – | 0.2 | – | 0.5 | 0.2 | 0.5 | 0.4 | 0.4 | 0.4 | 0.5 | 0.2 | 0.4 | Binding of serum 1a to linear peptides of protein N of SARS-CoV Urbani [3]: 0.3; Binding of serum 1b to linear peptides of protein N of SARS-CoV Urbani [3]: 0.1; Binding of serum 2 to linear peptides of protein N of SARS-CoV Urbani [3]: 0.3; Binding of serum 6 to linear peptides of protein N of SARS-CoV Urbani [3]: 0.2; Binding of serum 37 to linear peptides of protein N of SARS-CoV Urbani [3]: 0.7; Binding of serum 62 to linear peptides of protein N of SARS-CoV Urbani [3]: 0.7; Binding of serum London to linear peptides of protein N of SARS-CoV Urbani [3]: 0.5; Binding of serum SARS-green to linear peptides of protein N of SARS-CoV Urbani [3]: 0.5; Binding of serum SARS-yellow to linear peptides of protein N of SARS-CoV Urbani [3]: 0.7 |
| LLLLDRLNQLESKVS | 0.4 | 0.7 | 0.6 | 0.4 | 0.2 | 0.2 | 0.2 | 0.2 | 0.1 | 0.1 | 0.2 | 0.2 | 0.1 | 0.4 | 0.2 | 0.3 | 0.2 | 0.0 | 0.1 | 0.0 | Binding of serum 6 to linear peptide (PEPSCAN-ELISA) [3]: 0.1; Binding of serum 37 to linear peptide (PEPSCAN-ELISA) [3]: 0.7; Binding of serum 62 to linear peptide (PEPSCAN-ELISA) [3]: 0.4; Binding of serum London to linear peptide (PEPSCAN-ELISA) [3]: 0.7; Binding of serum SARS-green to linear peptide (PEPSCAN-ELISA) [3]: 0.4; Binding of serum SARS-yellow to linear peptide (PEPSCAN-ELISA) [3]: 0.4 |
